Experimental findings from patent US20190185518A9, “WARHEAD-CONTAINING PEPTIDOMIMETIC MACROCYCLES AS MODULATORS OF BFL-1” (AILERON Therapeutics, Inc., priority 2017, published 2019) are described below.

One experiment deals with Bcl-xL (Homo sapiens, UniProt Q07817). Description: Ki determination for Bcl-xL (BCL-2 family binding spectrum). The settings on record: read-out: Ki BCL-XL. In outline: (§1)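 Competitive fluorescence polarization: compounds (1 nM–1 mM) with 25 nM fluoresceinated peptidomimetic macrocycle and 50 nM protein in 140 mM NaCl, 50 mM Tris-HCl pH 7.4, 30 min at room temperature. Constants from nonlinear regression.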
Bcl-xL, sequence (Q07817 whole entry, species assumed): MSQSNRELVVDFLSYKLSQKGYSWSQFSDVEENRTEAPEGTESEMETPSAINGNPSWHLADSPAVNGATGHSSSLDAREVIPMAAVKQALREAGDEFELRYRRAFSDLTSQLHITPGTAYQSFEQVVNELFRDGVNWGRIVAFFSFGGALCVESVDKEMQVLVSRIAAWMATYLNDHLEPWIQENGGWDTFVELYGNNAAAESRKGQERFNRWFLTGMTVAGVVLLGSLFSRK

A further experiment has as its target Bcl-2 (Homo sapiens, UniProt P10415). Description: Ki determination for Bcl-2 (BCL-2 family binding spectrum). The settings on record: read-out: Ki BCL-2. In outline: as §1
The target of a further experiment is Mcl-1 (Homo sapiens, UniProt Q07820). In words: Ki determination for Mcl-1 (BCL-2 family binding spectrum). The settings on record: read-out: Ki MCL-1. The method, boiled down:
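Competitive fluorescence polarization assay in which compounds displace a fluoresceinated peptidomimetic macrocycle tracer from Mcl-1. Affinity constants were obtained by nonlinear regression.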

Positions of bridges follow the written chain, without caps; N, C: chain ends. Non-standard residues stand in square brackets, D forms with d. Residues, ends and D or L forms follow the SMILES beside them. ξ: configuration not given here. hCha = N[C@@H](CCC1CCCCC1)C(=O)O; hPhe = N[C@@H](CCc1ccccc1)C(=O)O; R8 = C=CCCCCCC[C@@](C)(N)C(=O)O; ξαMeD = CC(N)(CC(=O)O)C(=O)O; S5 = C=CCCC[C@](C)(N)C(=O)O; Aib = CC(C)(N)C(=O)O

Mcl-1, sequence (Q07820 whole entry, species assumed): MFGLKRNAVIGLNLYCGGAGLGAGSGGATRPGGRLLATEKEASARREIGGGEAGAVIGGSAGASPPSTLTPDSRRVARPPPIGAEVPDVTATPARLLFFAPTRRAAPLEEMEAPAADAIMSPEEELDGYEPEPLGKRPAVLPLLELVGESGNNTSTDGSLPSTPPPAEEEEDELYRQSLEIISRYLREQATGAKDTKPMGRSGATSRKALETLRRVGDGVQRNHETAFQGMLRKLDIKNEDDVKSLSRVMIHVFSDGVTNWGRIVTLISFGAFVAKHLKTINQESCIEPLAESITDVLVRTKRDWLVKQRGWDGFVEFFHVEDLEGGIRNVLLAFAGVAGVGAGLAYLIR
Bcl-2, sequence (P10415 whole entry, species assumed): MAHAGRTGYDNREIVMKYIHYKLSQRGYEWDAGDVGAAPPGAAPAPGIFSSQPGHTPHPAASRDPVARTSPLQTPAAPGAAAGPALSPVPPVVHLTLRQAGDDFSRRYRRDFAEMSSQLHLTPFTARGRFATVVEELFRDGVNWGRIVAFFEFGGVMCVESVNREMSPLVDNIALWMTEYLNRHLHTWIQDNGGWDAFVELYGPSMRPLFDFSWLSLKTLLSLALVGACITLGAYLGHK

As a reminder, the Ki is the equilibrium dissociation constant of an inhibitor or competing ligand from its target. Take `CC[C@H](C)[C@H](NC(C)=O)C(=O)N[C@@H](Cc1c[nH]c2ccccc12)C(=O)N[C@H](C(=O)N[C@@H](C)C(=O)N[C@@H](CCC(N)=O)C(=O)N[C@@H](C)C(=O)N[C@@H](CC(C)C)C(=O)N[C@@H](Cc1c[nH]cn1)C(=O)N[C@]1(C)CCCCCCC=CCCC[C@@](C)(C(=O)N[C@@H](Cc2ccc(O)cc2)C(=O)N[C@@H](Cc2ccc(O)cc2)C(=O)N[C@@H](C)C(N)=O)NC(=O)[C@H](CC(N)=O)NC(=O)[C@H](Cc2ccccc2)NC(=O)[C@H](C)NC(=O)[C@H](CC(=O)O)NC(=O)CNC(=O)[C@H]([C@@H](C)CC)NC1=O)[C@@H](C)CC` [compound 1657] (Ac-IWIAQALH[R8]IGDAFN[S5]YYA-NH2; staple 9-16): the Ki at Bcl-xL, on Bcl-2 and at Mcl-1 was greater than 1000 nM throughout.

For the compound `CC[C@H](C)[C@H](NC(C)=O)C(=O)N[C@@H](Cc1c[nH]c2ccccc12)C(=O)N[C@H](C(=O)N[C@@H](C)C(=O)N[C@@H](CCC(N)=O)C(=O)N[C@@H](C)C(=O)N[C@@H](CC(C)C)C(=O)N[C@@H](Cc1c[nH]cn1)C(=O)N[C@]1(C)CCCCCCC=CCCC[C@@](C)(C(=O)N[C@@H](Cc2ccc(O)cc2)C(=O)N[C@@H](Cc2ccc(O)cc2)C(=O)N[C@@H](C)C(N)=O)NC(=O)[C@H](CC(N)=O)NC(=O)[C@H](Cc2ccccc2)NC(=O)[C@H](CCC(N)=O)NC(=O)[C@H](CC(=O)O)NC(=O)CNC(=O)[C@H]([C@@H](C)CC)NC1=O)[C@@H](C)CC` [compound 1658] (Ac-IWIAQALH[R8]IGDQFN[S5]YYA-NH2; staple 9-16), the Ki on Bcl-xL, at Bcl-2 and on Mcl-1 was greater than 1000 nM in each case.

In the case of `CC[C@H](C)[C@H](NC(C)=O)C(=O)N[C@@H](Cc1c[nH]c2ccccc12)C(=O)N[C@H](C(=O)N[C@@H](C)C(=O)N[C@@H](CCC(N)=O)C(=O)N[C@@H](C)C(=O)N[C@@H](CC(C)C)C(=O)N[C@@H](CCCNC(=N)N)C(=O)N[C@]1(C)CCCCCCC=CCCC[C@@](C)(C(=O)N[C@@H](Cc2ccc(O)cc2)C(=O)N[C@@H](Cc2ccc(O)cc2)C(=O)N[C@@H](C)C(N)=O)NC(=O)[C@H](CC(N)=O)NC(=O)[C@H](C)NC(=O)[C@H](C)NC(=O)[C@H](CC(=O)O)NC(=O)CNC(=O)[C@H]([C@@H](C)CC)NC1=O)[C@@H](C)CC` [compound 1661] (Ac-IWIAQALR[R8]IGDAAN[S5]YYA-NH2; staple 9-16), the results for the Ki at Bcl-xL, on Bcl-2 and on Mcl-1 were 402 nM, 140 nM and 7.5 nM, respectively.

For `CC[C@H](C)[C@H](NC(C)=O)C(=O)N[C@@H](Cc1c[nH]c2ccccc12)C(=O)N[C@H](C(=O)N[C@@H](C)C(=O)N[C@@H](CCC(N)=O)C(=O)N[C@@H](C)C(=O)N[C@@H](CC(C)C)C(=O)N[C@@H](CCCNC(=N)N)C(=O)N[C@]1(C)CCCCCCC=CCCC[C@@](C)(C(=O)N[C@@H](Cc2ccc(O)cc2)C(=O)N[C@@H](Cc2ccc(O)cc2)C(=O)N[C@@H](C)C(N)=O)NC(=O)[C@H](CC(N)=O)NC(=O)[C@H](Cc2ccccc2)NC(=O)[C@H](CCC(N)=O)NC(=O)[C@H](CC(=O)O)NC(=O)[C@H](C)NC(=O)[C@H]([C@@H](C)CC)NC1=O)[C@@H](C)CC` [compound 1666] (Ac-IWIAQALR[R8]IADQFN[S5]YYA-NH2; staple 9-16), the figures for the Ki at Bcl-xL, on Bcl-2 and at Mcl-1 were 7.7 nM, 25.6 nM and 116 nM, respectively.

As for `CC[C@H](C)[C@H](NC(C)=O)C(=O)N[C@@H](Cc1c[nH]c2ccccc12)C(=O)N[C@H](C(=O)N[C@@H](C)C(=O)N[C@@H](CCC(N)=O)C(=O)N[C@@H](C)C(=O)N[C@@H](CC(C)C)C(=O)N[C@@H](CCCNC(=N)N)C(=O)N[C@]1(C)CCCCCCC=CCCC[C@@](C)(C(=O)N[C@@H](Cc2ccc(O)cc2)C(=O)N[C@@H](Cc2ccc(O)cc2)C(=O)N[C@@H](C)C(N)=O)NC(=O)[C@H](CC(N)=O)NC(=O)[C@H](Cc2ccccc2)NC(=O)[C@H](CCC(N)=O)NC(=O)[C@H](CC(=O)O)NC(=O)CNC(=O)[C@H](C)NC1=O)[C@@H](C)CC` [compound 1668] (Ac-IWIAQALR[R8]AGDQFN[S5]YYA-NH2; staple 9-16), the inhibition constant (Ki) on Bcl-xL worked out at 1.9 nM; on Bcl-2, 4.8 nM; at Mcl-1, 122 nM.

For `CC[C@H](C)[C@H](NC(C)=O)C(=O)N[C@@H](Cc1c[nH]c2ccccc12)C(=O)N[C@H](C(=O)N[C@@H](C)C(=O)N[C@@H](CCC(N)=O)C(=O)N[C@@H](C)C(=O)N[C@@H](CC(C)C)C(=O)N[C@@H](C)C(=O)N[C@]1(C)CCCCCCC=CCCC[C@@](C)(C(=O)N[C@@H](Cc2ccc(O)cc2)C(=O)N[C@@H](Cc2ccc(O)cc2)C(=O)N[C@@H](C)C(N)=O)NC(=O)[C@H](CC(N)=O)NC(=O)[C@H](Cc2ccccc2)NC(=O)[C@H](C)NC(=O)[C@H](CC(=O)O)NC(=O)CNC(=O)[C@H]([C@@H](C)CC)NC1=O)[C@@H](C)CC` [compound 1673] (Ac-IWIAQALA[R8]IGDAFN[S5]YYA-NH2; staple 9-16), the figures for the inhibition constant (Ki) on Bcl-xL, at Bcl-2 and on Mcl-1 were 386 nM, greater than 1000 nM and 73.8 nM, respectively.

Consider `CC[C@H](C)[C@H](NC(C)=O)C(=O)N[C@@H](Cc1c[nH]c2ccccc12)C(=O)N[C@H](C(=O)N[C@@H](C)C(=O)N[C@@H](CCC(N)=O)C(=O)N[C@@H](C)C(=O)N[C@@H](CC(C)C)C(=O)N[C@@H](CCCNC(=N)N)C(=O)N[C@]1(C)CCCCCCC=CCCC[C@@](C)(C(=O)N[C@@H](Cc2ccc(O)cc2)C(=O)N[C@@H](Cc2ccc(O)cc2)C(=O)N[C@@H](C)C(N)=O)NC(=O)[C@H](CC(N)=O)NC(=O)[C@H](Cc2ccccc2)NC(=O)[C@H](C)NC(=O)[C@H](CC(N)=O)NC(=O)CNC(=O)[C@H]([C@@H](C)CC)NC1=O)[C@@H](C)CC` [compound 1674] (Ac-IWIAQALR[R8]IGNAFN[S5]YYA-NH2; staple 9-16), for which the Ki was 416 nM at Bcl-xL, 405 nM on Bcl-2 and 195 nM on Mcl-1.

Regarding `CC[C@H](C)[C@H](NC(C)=O)C(=O)N[C@@H](Cc1c[nH]c2ccccc12)C(=O)N[C@H](C(=O)N[C@@H](C)C(=O)N[C@@H](CCC(N)=O)C(=O)N[C@@H](C)C(=O)N[C@@H](C)C(=O)N[C@@H](CCCNC(=N)N)C(=O)N[C@]1(C)CCCCCCC=CCCC[C@@](C)(C(=O)N[C@@H](Cc2ccc(O)cc2)C(=O)N[C@@H](Cc2ccc(O)cc2)C(=O)N[C@@H](C)C(N)=O)NC(=O)[C@H](CC(N)=O)NC(=O)[C@H](Cc2ccccc2)NC(=O)[C@H](C)NC(=O)[C@H](CC(=O)O)NC(=O)CNC(=O)[C@H]([C@@H](C)CC)NC1=O)[C@@H](C)CC` [compound 1675] (Ac-IWIAQAAR[R8]IGDAFN[S5]YYA-NH2; staple 9-16), the Ki at Bcl-xL, at Bcl-2 and at Mcl-1 was greater than 1000 nM in each case.

As to `CC[C@H](C)[C@H](NC(C)=O)C(=O)N[C@@H](Cc1c[nH]c2ccccc12)C(=O)N[C@H](C(=O)N[C@@H](C)C(=O)N[C@@H](CCC(N)=O)C(=O)N[C@@H](C)C(=O)N[C@@H](CCC1CCCCC1)C(=O)N[C@@H](CCCNC(=N)N)C(=O)N[C@]1(C)CCCCCCC=CCCC[C@@](C)(C(=O)N[C@@H](Cc2ccc(O)cc2)C(=O)N[C@@H](Cc2ccc(O)cc2)C(=O)N[C@@H](C)C(N)=O)NC(=O)[C@H](CC(N)=O)NC(=O)[C@H](Cc2ccccc2)NC(=O)[C@H](C)NC(=O)[C@H](CC(=O)O)NC(=O)CNC(=O)[C@H]([C@@H](C)CC)NC1=O)[C@@H](C)CC` [compound 1690] (Ac-IWIAQA[hCha]R[R8]IGDAFN[S5]YYA-NH2; staple 9-16), the Ki is greater than 1000 nM on Bcl-xL, greater than 1000 nM on Bcl-2 and 3.8 nM on Mcl-1.

For `CC[C@H](C)[C@H](NC(C)=O)C(=O)N[C@@H](Cc1c[nH]c2ccccc12)C(=O)N[C@H](C(=O)N[C@@H](C)C(=O)N[C@@H](CCC(N)=O)C(=O)N[C@@H](C)C(=O)N[C@@H](CCc1ccccc1)C(=O)N[C@@H](CCCNC(=N)N)C(=O)N[C@]1(C)CCCCCCC=CCCC[C@@](C)(C(=O)N[C@@H](Cc2ccc(O)cc2)C(=O)N[C@@H](Cc2ccc(O)cc2)C(=O)N[C@@H](C)C(N)=O)NC(=O)[C@H](CC(N)=O)NC(=O)[C@H](Cc2ccccc2)NC(=O)[C@H](C)NC(=O)[C@H](CC(=O)O)NC(=O)CNC(=O)[C@H]([C@@H](C)CC)NC1=O)[C@@H](C)CC` [compound 1692] (Ac-IWIAQA[hPhe]R[R8]IGDAFN[S5]YYA-NH2; staple 9-16), the Ki is greater than 1000 nM on Bcl-xL, greater than 1000 nM on Bcl-2 and 7.5 nM on Mcl-1.

Take `CC[C@H](C)[C@H](NC(C)=O)C(=O)N[C@@H](Cc1c[nH]c2ccccc12)C(=O)N[C@H](C(=O)NC(C)(C)C(=O)N[C@@H](CCC(N)=O)C(=O)N[C@@H](C)C(=O)N[C@@H](CC(C)C)C(=O)N[C@@H](CCCNC(=N)N)C(=O)N[C@]1(C)CCCCCCC=CCCC[C@@](C)(C(=O)N[C@@H](Cc2ccc(O)cc2)C(=O)N[C@@H](Cc2ccc(O)cc2)C(=O)N[C@@H](C)C(N)=O)NC(=O)[C@H](CC(N)=O)NC(=O)[C@H](Cc2ccccc2)NC(=O)[C@H](C)NC(=O)C(C)(CC(=O)O)NC(=O)CNC(=O)[C@H]([C@@H](C)CC)NC1=O)[C@@H](C)CC` (stereo partly drawn) [compound 1707] (Ac-IWI[Aib]QALR[R8]IG[ξαMeD]AFN[S5]YYA-NH2; staple 9-16): the Ki at Bcl-xL, on Bcl-2 and on Mcl-1 was greater than 1000 nM each time.

As for `CC[C@H](C)[C@H](NC(C)=O)C(=O)N[C@@H](Cc1c[nH]c2ccccc12)C(=O)N[C@H](C(=O)N[C@@H](C)C(=O)N[C@@H](CCC(N)=O)C(=O)N[C@@H](C)C(=O)N[C@@H](CC(C)C)C(=O)N[C@@H](CCCNC(=N)N)C(=O)N[C@]1(C)CCCCCCC=CCCC[C@@](C)(C(=O)N[C@@H](Cc2ccc(O)cc2)C(=O)N[C@@H](Cc2c[nH]c3ccccc23)C(=O)N[C@@H](C)C(N)=O)NC(=O)[C@H](CC(N)=O)NC(=O)[C@H](Cc2ccccc2)NC(=O)[C@H](C)NC(=O)[C@H](CC(=O)O)NC(=O)CNC(=O)[C@H]([C@@H](C)CC)NC1=O)[C@@H](C)CC` [compound 1758] (Ac-IWIAQALR[R8]IGDAFN[S5]YWA-NH2; staple 9-16), the inhibition constant Ki at Bcl-xL came out at 15.4 nM; on Bcl-2, 23.5 nM; on Mcl-1, 3.9 nM.
